Assays:
[1] = test system: GluN2A containing NMDA receptors; settings: ref Frizelle et al., 2006; cited from earlier work
NMDA receptors = settings: ref Frizelle et al., 2006; Urwyler et al., 1996; cited from earlier work
non-NMDA receptors = test: D-AP5 effect on non-NMDA receptors; type: cell-based; settings: as high as 100 µM
GluA2 Leu704Tyr = GluA2 Leu704Tyr (Rattus norvegicus, UniProt P19491, L504Y/L725Y); test: D-AP5 sensitivity of GluA2 Leu704 to tyrosine mutant; type: cell-based; settings: data not shown
GluK1 Met722Tyr = GluK1 Met722Tyr (Rattus norvegicus, UniProt P22756, M752Y); test: D-AP5 sensitivity of GluK1 Met722 to tyrosine mutant; type: cell-based; settings: data not shown
[2] = target: GluN1/GluN2A Tyr730Phe NMDA receptor (Rattus norvegicus, UniProt Q00959, Y730F); test: TEVC mutational analysis, GluN2A Tyr730Phe; settings: Tyr730Phe vs wild type
[3] = target: GluN1/GluN2A Tyr730Leu NMDA receptor (Rattus norvegicus, UniProt Q00959, Y730L); test: TEVC mutational analysis, GluN2A Tyr730Leu; settings: Tyr730Leu vs wild type
[4] = target: GluN1/GluN2A Tyr730Met NMDA receptor (Rattus norvegicus, UniProt Q00959, Y730M); test: TEVC mutational analysis, GluN2A Tyr730Met; settings: Tyr730Met vs wild type
[5] = target: GluN1/GluN2A Val734Ala NMDA receptor (Rattus norvegicus, UniProt Q00959, V734A); test: TEVC mutational analysis, GluN2A Val734Ala; settings: Val734Ala vs wild type
[6] = target: GluN1/GluN2A Tyr737Ala NMDA receptor (Rattus norvegicus, UniProt Q00959, Y737A); test: TEVC mutational analysis, GluN2A Tyr737Ala; settings: Tyr737Ala vs wild type
[7] = target: GluN1/GluN2A Lys738Met NMDA receptor (Rattus norvegicus, UniProt Q00959, K738M); test: TEVC mutational analysis, GluN2A Lys738Met; settings: Lys738Met vs wild type
[8] = target: GluN1/GluN2A Phe416Ala NMDA receptor (Rattus norvegicus, UniProt Q00959, F416A); test: TEVC mutational analysis, GluN2A Phe416Ala; settings: Phe416Ala vs wild type
[9] = target: GluN1/GluN2A Val713Ala NMDA receptor (Rattus norvegicus, UniProt Q00959, V713A); test: TEVC mutational analysis, GluN2A Val713Ala; settings: Val713Ala vs wild type
[10] = target: GluN1/GluN2A NMDA receptors (Rattus norvegicus, UniProt P35439+Q00959); type: cell-based
[11] = target: GluN1/GluN2A NMDA receptors (Rattus norvegicus, UniProt Q00959); type: cell-based
[12] = target: GluA2 AMPA receptors (Leu483Tyr, flip) (Rattus norvegicus, UniProt P19491, L504Y); test: TEVC inhibition of L-glutamate induced currents, non-desensitizing GluA2 mutant; type: cell-based
[13] = target: GluK1 kainate receptors (Tyr506Cys Leu768Cys) (Rattus norvegicus, UniProt P22756, L798C/Y536C); test: TEVC inhibition of L-glutamate induced currents, non-desensitizing GluK1 mutant; type: cell-based
[14] = test system: GluN1/GluN2D NMDA receptors; test: TEVC inhibition of currents, GluN1/GluN2D in Xenopus oocytes; type: cell-based, rat
[15] = 100 µM compound in the presence of 30 µM glutamate

Chain of GluN1/GluN2A Tyr730Met NMDA receptor (Q00959 20-1464 Y730M limits assumed, other chains not shown): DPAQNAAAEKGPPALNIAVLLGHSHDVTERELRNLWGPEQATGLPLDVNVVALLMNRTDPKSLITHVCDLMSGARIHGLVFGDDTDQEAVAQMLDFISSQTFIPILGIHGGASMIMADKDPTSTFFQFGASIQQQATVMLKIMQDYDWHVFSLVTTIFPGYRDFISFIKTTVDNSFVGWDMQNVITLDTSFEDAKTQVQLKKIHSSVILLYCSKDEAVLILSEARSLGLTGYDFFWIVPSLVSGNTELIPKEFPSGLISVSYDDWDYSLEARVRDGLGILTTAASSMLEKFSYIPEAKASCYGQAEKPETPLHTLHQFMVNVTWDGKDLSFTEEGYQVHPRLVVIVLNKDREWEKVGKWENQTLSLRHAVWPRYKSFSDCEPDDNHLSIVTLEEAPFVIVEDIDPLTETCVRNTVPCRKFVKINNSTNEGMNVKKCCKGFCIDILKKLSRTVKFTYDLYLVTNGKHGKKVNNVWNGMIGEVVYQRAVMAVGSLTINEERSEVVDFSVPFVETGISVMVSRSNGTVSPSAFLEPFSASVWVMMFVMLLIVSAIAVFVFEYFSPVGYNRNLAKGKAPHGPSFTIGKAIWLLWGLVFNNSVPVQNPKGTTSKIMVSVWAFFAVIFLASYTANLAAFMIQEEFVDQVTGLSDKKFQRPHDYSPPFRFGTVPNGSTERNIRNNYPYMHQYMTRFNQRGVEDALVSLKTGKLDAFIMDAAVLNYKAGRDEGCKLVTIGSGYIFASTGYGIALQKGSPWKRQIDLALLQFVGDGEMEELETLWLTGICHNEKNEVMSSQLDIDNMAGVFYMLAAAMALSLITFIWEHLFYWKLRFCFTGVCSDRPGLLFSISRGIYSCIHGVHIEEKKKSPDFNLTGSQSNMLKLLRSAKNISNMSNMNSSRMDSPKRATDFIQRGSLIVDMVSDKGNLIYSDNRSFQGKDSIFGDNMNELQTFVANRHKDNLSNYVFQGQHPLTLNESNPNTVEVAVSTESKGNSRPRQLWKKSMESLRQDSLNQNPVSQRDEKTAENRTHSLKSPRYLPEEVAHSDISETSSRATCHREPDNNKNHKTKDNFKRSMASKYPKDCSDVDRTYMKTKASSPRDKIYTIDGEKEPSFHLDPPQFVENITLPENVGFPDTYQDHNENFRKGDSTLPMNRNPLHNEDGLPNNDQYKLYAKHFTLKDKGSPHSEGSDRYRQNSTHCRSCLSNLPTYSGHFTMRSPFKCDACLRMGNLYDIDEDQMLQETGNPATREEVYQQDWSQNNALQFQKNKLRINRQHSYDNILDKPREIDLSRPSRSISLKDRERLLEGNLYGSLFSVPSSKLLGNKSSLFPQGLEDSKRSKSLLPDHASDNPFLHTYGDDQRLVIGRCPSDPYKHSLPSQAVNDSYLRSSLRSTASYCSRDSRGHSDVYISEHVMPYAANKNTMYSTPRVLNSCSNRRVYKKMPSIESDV
Chain of GluN1/GluN2A Val713Ala NMDA receptor (Q00959 20-1464 V713A limits assumed, other chains not shown): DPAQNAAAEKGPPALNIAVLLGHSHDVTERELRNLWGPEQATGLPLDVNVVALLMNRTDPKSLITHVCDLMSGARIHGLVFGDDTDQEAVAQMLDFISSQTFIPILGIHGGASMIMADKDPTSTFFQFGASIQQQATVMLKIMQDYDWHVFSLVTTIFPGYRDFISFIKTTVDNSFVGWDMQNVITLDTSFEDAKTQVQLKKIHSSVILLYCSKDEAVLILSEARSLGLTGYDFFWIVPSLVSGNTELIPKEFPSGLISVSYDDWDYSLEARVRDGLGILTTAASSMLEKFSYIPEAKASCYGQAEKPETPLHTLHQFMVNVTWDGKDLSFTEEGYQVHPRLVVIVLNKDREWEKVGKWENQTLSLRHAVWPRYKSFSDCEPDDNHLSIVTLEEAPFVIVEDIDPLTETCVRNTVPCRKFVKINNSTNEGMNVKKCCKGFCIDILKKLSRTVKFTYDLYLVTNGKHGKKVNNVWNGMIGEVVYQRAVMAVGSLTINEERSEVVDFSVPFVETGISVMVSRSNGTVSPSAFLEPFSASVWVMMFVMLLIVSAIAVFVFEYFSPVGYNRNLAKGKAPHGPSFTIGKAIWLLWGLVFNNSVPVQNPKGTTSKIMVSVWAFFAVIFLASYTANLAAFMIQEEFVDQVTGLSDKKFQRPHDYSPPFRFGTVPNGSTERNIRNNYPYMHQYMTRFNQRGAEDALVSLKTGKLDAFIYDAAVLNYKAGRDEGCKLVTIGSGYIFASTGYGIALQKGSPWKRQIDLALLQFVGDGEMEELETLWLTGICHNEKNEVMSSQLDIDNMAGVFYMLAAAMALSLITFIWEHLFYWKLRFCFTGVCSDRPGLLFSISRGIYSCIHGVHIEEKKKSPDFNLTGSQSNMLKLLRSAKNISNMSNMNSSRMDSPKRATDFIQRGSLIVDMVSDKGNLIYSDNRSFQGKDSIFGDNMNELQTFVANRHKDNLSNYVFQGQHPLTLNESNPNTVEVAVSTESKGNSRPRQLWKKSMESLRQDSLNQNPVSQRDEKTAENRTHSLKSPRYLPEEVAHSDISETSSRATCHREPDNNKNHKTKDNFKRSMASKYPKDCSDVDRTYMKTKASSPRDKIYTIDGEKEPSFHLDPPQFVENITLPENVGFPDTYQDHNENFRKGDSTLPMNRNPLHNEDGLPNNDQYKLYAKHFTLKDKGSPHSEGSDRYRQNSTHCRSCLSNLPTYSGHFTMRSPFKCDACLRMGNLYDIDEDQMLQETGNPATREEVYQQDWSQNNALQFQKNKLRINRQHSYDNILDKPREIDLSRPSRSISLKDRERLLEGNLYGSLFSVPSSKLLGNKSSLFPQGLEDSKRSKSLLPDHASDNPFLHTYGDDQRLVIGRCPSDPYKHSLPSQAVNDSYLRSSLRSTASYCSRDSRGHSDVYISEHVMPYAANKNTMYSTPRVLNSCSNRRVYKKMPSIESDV
Chain of GluN1/GluN2A Tyr730Leu NMDA receptor (Q00959 20-1464 Y730L limits assumed, other chains not shown): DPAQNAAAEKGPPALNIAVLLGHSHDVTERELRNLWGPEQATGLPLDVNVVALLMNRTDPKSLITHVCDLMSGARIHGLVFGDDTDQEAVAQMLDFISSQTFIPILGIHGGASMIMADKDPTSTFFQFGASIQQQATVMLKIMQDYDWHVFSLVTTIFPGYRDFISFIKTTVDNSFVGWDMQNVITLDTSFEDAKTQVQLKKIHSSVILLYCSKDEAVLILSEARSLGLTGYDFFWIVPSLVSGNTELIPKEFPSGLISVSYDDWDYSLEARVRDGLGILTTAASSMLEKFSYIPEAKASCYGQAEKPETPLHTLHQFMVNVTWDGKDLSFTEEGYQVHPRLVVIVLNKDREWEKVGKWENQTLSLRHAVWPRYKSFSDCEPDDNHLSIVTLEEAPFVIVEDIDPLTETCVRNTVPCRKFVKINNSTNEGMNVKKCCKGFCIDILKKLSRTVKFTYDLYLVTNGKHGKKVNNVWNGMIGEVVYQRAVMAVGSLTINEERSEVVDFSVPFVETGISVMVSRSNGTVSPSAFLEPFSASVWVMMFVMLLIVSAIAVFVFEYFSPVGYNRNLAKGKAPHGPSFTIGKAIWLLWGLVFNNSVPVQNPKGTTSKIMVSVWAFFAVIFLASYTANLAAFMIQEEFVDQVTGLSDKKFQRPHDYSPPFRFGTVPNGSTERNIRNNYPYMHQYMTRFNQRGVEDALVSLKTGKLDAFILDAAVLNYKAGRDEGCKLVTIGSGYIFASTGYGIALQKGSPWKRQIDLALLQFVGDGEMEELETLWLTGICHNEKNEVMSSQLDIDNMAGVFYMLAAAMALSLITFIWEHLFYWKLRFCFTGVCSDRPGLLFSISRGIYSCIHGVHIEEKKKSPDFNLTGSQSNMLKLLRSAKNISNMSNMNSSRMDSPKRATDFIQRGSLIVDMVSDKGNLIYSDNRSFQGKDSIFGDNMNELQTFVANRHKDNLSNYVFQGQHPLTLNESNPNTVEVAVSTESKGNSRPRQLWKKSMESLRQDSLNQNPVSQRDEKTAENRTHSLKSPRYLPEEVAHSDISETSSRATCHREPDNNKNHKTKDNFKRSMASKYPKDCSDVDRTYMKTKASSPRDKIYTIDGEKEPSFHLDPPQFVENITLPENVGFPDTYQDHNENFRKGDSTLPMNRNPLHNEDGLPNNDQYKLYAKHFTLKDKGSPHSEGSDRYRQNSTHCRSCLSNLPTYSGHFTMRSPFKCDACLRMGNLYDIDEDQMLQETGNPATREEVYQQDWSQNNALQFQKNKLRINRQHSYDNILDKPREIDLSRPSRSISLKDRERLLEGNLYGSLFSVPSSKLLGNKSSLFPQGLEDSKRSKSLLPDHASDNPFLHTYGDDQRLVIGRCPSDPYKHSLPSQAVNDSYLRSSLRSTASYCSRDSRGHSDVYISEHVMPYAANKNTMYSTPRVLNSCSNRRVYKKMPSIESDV

C[C@H](N[C@@H](c1cccc2[nH]c(=O)c(=O)[nH]c12)P(=O)(O)O)c1ccc(Br)cc1 [NVP-AAM077]
specificity toward GluN2A containing over GluN2B containing NMDA receptors [1]: 5 fold
potency (NMDA receptors): nanomolar potency

N[C@@H](Cc1cc(-c2ccc(Cl)cc2Cl)cc(CP(=O)(O)O)c1O)C(=O)O [SDZ220-040]
potency (NMDA receptors): nanomolar potency

N[C@H](CCCP(=O)(O)O)C(=O)O [D-AP5, D-(−)-2-Amino-5-phosphonopentanoic acid]
inhibitory effect (non-NMDA receptors): no inhibitory effect
sensitivity to D-AP5 (GluA2 Leu704Tyr): does not confer sensitivity
sensitivity to D-AP5 (GluK1 Met722Tyr): does not confer sensitivity
change in sensitivity [2]: five-fold decrease in sensitivity
fold increase in Ki [3]: ~ 20 fold
fold increase in Ki [4]: ~ 80 fold
effect of mutation on potency [5]: only minor effects
effect of mutation on potency [6]: only minor effects
effect of mutation on potency [7]: only minor effects
effect of mutation on sensitivity [8]: minor effects
effect of mutation on sensitivity [9]: minor effects

O=C(O)C1NCCN(C(=O)c2ccc3c(ccc4ccccc43)c2)C1C(=O)O (single isomer, unassigned; (-)) [(−)-PPDA, 1-(Phenanthrene-2-carbonyl)piperazine-2,3-dicarboxylic acid]
Ki [10]: 0.82 µM
inhibition of current ([11]; 100 µM compound in the presence of agonists (100 µM glycine/30 µM glutamate)): completely inhibited
Ki [12]: 7.85 µM
inhibition of current [12, 15]: completely inhibited
Ki [13]: 1.17 µM
inhibition of current [13, 15]: completely inhibited
change in sensitivity [2]: increase in (−)-PPDA sensitivity
change in sensitivity [3]: little or no change
change in sensitivity [4]: little or no change
effect of mutation on potency [5]: decreases the (−)-PPDA sensitivity
effect of mutation on potency [6]: decreases the (−)-PPDA sensitivity
effect of mutation on potency [7]: increases the (−)-PPDA sensitivity
effect of mutation on sensitivity [8]: minor effects
effect of mutation on sensitivity [9]: minor effects

O=C(O)C1NCCN(C(=O)c2ccc3c(ccc4ccccc43)c2)C1C(=O)O (single isomer, unassigned; (+)) [(+)-PPDA, 1-(Phenanthrene-2-carbonyl)piperazine-2,3-dicarboxylic acid]
fold weaker potency than (−)-PPDA ([11]; dose-response inhibition, TEVC): 6–7 fold
fold higher potency toward GluN1/GluN2D than GluN1/GluN2A [14]: 5–6 fold
fold weaker potency than (−)-PPDA ([14]; dose-response inhibition): 6–7 fold

Source: publication PMC3997178 (Neuron, 2014)
